Reference: patent US20140088056A1, “CARDIAC GLYCOSIDES ARE POTENT INHIBITORS OF INTERFERON-BETA GENE EXPRESSION” (priority 2010, published 2014)

Tests used:
[1] = system: PRDII element of the IFNβ promoter; type: cell-based, human; details: 1 uM, compared with no drug treatment
Protocol: 293T cells were transfected with the IFNβ promoter driving a firefly luciferase reporter together a reference renilla luciferase reporter plasmid. […] Firefly luciferase activities were measured after another 24 hrs and normalized to that of renilla activities. […] Experiments were conducted same as in A, but PRDIV, PRDIII/I and PRDII driving luciferase reporter plasmids were used instead.

MEFs = assay: RT-PCR of IFNβ induction in mouse embryonic fibroblasts (MEFs); type: cell-based; details: 1 uM; SeV, dsRNA, dsDNA
Source text: As discussed above, the mouse ATP1a1 protein is not sensitive to cardiac glycoside binding.

293T cells [2] = assay: Intracellular sodium concentration measurement (SBFI) in 293T cells; type: cell-based, human; details: 1 μM, 30 minutes; from about 20 mM without
Protocol: Bound RIG-I protein was analyzed by western blot (top panel). The expression of IFNβ and Cxcl 10 genes in these cells was also analyzed by RT-PCR (bottom panel). FIG. 3B, high salt concentration inhibits RIG-I helicase activities while the effect on RNA binding is minor. Recombinant RIG-I protein was incubated with dsRNA (67 bp) in the presence of increasing NaCl and KCl concentrations. RNA binding was monitored by native agarose gel analysis (top panel). For the ATPase activities, samples were adjusted to 1 mM ATP and further incubated for 15 min at 37° C., free phosphate released was measured with BIOMOL GREEN reagent. The image of the plate was shown in the bottom panel, and signals from the reading were quantified and graphed in the middle panel. The lanes of the gel, bars of the graph and wells in the ATPase assay are aligned according to experimental conditions. […] 293T cells were loaded with 10 μM SBFI-AM in the presence of 0.02% Pluronic F-127 for 1 hour at 37° C. […] To generate the standard curve, SBFI-Am loaded cells were exposed to solutions with increasing concentrations of sodium in the presence of 10 μM gramicidin for 30 minutes at 37° C. and 340/380 nm fluorescence ratio determined. […]

patients = details: huachansu, Meng et al.; cited from earlier work
293T cells [3] = assay: Flow cytometry analysis of apoptosis (Annexin V / 7-AAD); type: cell-based, human; details: bufalin 1 μM 8 hours; staurosporine 4 μM 4 hours
Protocol: The cells were also exposed to 0.1% Triton X-100 for 1 hr before the viability assay as a control (FIG. 16E). Data represent mean values±s.d. (n=3). […] Cells were harvested and washed, then stained with Allophycocyanin (APC) conjugated Annexin V and 7-AAD for 15 minutes and subjected to flow cytometry analysis. The number in each graph is the percentile of Annexin V or 7-AAD positive populations. […] Total protein lysates were prepared and separated on SDS-PAGE for Western blot analysis of PARP1, cleaved PARP1, cleaved Caspase3, LC3B, ATP1a1, and beta-actin expression.
Treated cells and untreated control cells were harvested and washed with PBS, and stained with APC conjugated Annexin V and 7-AAD (both from BD Biosciences) in Annexin V binding buffer (10 mM HEPES, pH 7.4, 140 mM NaCl, 2.5 mM CaCl2) for 15 minutes at room temperature, and then subjected to flow cytometry analysis on a FACSCalibur (BD Biosciences).
Cells were harvested and washed, then stained with Allophycocyanin (APC) conjugated Annexin V and 7-AAD for 15 minutes and subjected to flow cytometry analysis. […] 11 for sturosporine.

SMILES: C[C@]12CC[C@H](O)C[C@H]1CC[C@@H]1[C@H]2CC[C@]2(C)[C@@H](c3ccc(=O)oc3)CC[C@]12O [Bufalin]
- repression of viral induction of luciferase expression, PRDII reporter [1]: > 86%
- induction of IFNβ gene by various inducers in MEFs (MEFs): little effects
- intracellular sodium concentration (293T cells [2]): over 120 mM
- well tolerated concentration of bufalin in patients (patients): up to 9 nM
- Percentile of Annexin V or 7-AAD positive populations (293T cells [3]): 1.95
